Experimental data taken from patent US20250326744A1, “PIPERAZINE DERIVATIVE OR SALT THEREOF, AND PHARMACEUTICAL COMPOSITION” (priority 2022, published 2025).
Structures can show the parent of a compound that is named as a salt.

Legend:
[1] = tested on: mexB (PA) strain; assay: Combinational effect with antibacterial agent against Pseudomonas aeruginosa (Test Examples 2 and 4): mexB (PA) strain with LVFX, TC or AZT at 1/4 MIC, EC99; format: cell-based; settings: mexB (PA) strain, Test Example 4; for EC99, combinational effect with AZT, mexB (PA): combined with AZT at 1/4 MIC; for EC99, combinational effect with LVFX, mexB (PA): combined with LVFX at 1/4 MIC; for EC99, combinational effect with TC, mexB (PA): combined with TC at 1/4 MIC
How it was run: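 P. aeruginosa mexB (PA) strain, lacking MexCD-OprJ, MexEF-OprN and MexXY and overexpressing MexAB-OprM, grown 16–20 h in CAMHB (10^4–5 CFU/well) with LVFX, TC or AZT at ¼ MIC plus test compound at 0–800 μM. Growth read as OD595; EC99 is the lowest compound concentration giving ≥99% growth inhibition.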

[2] = tested on: S-3769 strain; assay: Combinational effect with antibacterial agent against Pseudomonas aeruginosa (Test Examples 2 and 4): S-3769 strain with AMK or GM at 1/4 MIC, EC99; format: cell-based; settings: S-3769 strain, Test Example 4; for EC99, combinational effect with AMK, S-3769 strain: combined with AMK at 1/4 MIC; for EC99, combinational effect with GM, S-3769 strain: combined with GM at 1/4 MIC
How it was run: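 P. aeruginosa S-3769 (clinical isolate, MexY overexpressed) grown 16–20 h in CAMHB, 10^4 to 5 CFU/well, with AMK or GM at ¼ MIC plus test compound 0–800 μM. Growth read as OD595; EC99 is the lowest compound concentration giving ≥99% growth inhibition.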

SMILES | EC99, combinational effect with AZT, mexB (PA) [1] | EC99, combinational effect with LVFX, mexB (PA) [1] | EC99, combinational effect with TC, mexB (PA) [1] | EC99, combinational effect with AMK, S-3769 strain [2] | EC99, combinational effect with GM, S-3769 strain [2]
CSc1ccccc1CN1CCN(C(=O)[C@H](N)C2CCN(CCc3cc(Cl)ccc3-c3ccccc3O)CC2)CC1 [Example 592, Hydrochloride of (R)-2-amino-2-(1-(2-(4-chloro-2′-hydroxy-[1,1-biphenyl]-2-yl)ethyl)piperidin-4-yl)-1-(4-(2-(methylthio)benzyl)piperazin-1-yl)ethan-1-one] | S (EC99≤12.5 μM) | S (EC99≤12.5 μM) | S (EC99≤12.5 μM) | A (12.5 μM<EC99≤25 μM) | B (25 μM<EC99≤100 μM)
CCSc1cc(F)ccc1CN1CCN(C(=O)[C@H](N)C2CCN(CCc3cc(Cl)ccc3-c3cccc(O)c3)CC2)CC1 [Example 593, Hydrochloride of (R)-2-amino-2-(1-(2-(4-chloro-3′-hydroxy-[1,1-biphenyl]-2-yl)ethyl)piperidin-4-yl)-1-(4-(2-(ethylthio)-4-fluorobenzyl)piperazin-1-yl) ethan-1-one] | B (25 μM<EC99≤100 μM) | A (12.5 μM<EC99≤25 μM) | A (12.5 μM<EC99≤25 μM) | S (EC99≤12.5 μM) | B (25 μM<EC99≤100 μM)
CCSc1cc(F)ccc1CN1CCN(C(=O)[C@H](N)C2CCN(CCc3cc(Cl)ccc3-c3ccccc3O)CC2)CC1 [Example 594, Hydrochloride of (R)-2-amino-2-(1-(2-(4-chloro-2′-hydroxy-[1,1-biphenyl]-2-yl)ethyl)piperidin-4-yl)-1-(4-(2-(ethylthio)-4-fluorobenzyl)piperazin-1-yl) ethan-1-one] | S (EC99≤12.5 μM) | A (12.5 μM<EC99≤25 μM) | S (EC99≤12.5 μM) | S (EC99≤12.5 μM) | A (12.5 μM<EC99≤25 μM)
CCOc1cccc(F)c1CN1CCN(C(=O)[C@H](N)C2CCN(CCc3cc(Cl)ccc3-c3cccc(O)c3F)CC2)CC1 [Example 595, Hydrochloride of (R)-2-amino-2-(1-(2-(4-chloro-2-fluoro-3′-hydroxy-[1,1-biphenyl]-2-yl)ethyl)piperidin-4-yl)-1-(4-(2-ethoxy-6-fluorobenzyl)piperazin-1-yl)ethan-1-one] | S (EC99≤12.5 μM) | S (EC99≤12.5 μM) | S (EC99≤12.5 μM) | S (EC99≤12.5 μM) | A (12.5 μM<EC99≤25 μM)
CCOc1cccc(F)c1CN1CCN(C(=O)[C@H](N)C2CCN(CCc3cc(O)ccc3-c3ccccc3)CC2)CC1 [Example 596, Hydrochloride of (R)-2-amino-1-(4-(2-ethoxy-6-fluorobenzyl)piperazin-1-yl)-2-(1-(2-(4-hydroxy-[1,1′-biphenyl]-2-yl)ethyl)piperidin-4-yl)ethan-1-one] | C (100 μM<EC99) | B (25 μM<EC99≤100 μM) | B (25 μM<EC99≤100 μM) | S (EC99≤12.5 μM) | A (12.5 μM<EC99≤25 μM)
CCSc1cc(F)ccc1CN1CCN(C(=O)[C@H](N)C2CCN(CCc3cc(Cl)ccc3C3=CCNCC3)CC2)CC1 [Example 597, hydrochloride of (R)-2-amino-2-(1-(5-chloro-2-(1,2,3,6-tetrahydropyridin-4-yl)phenethyl)piperidin-4-yl)-1-(4-(2-(ethylthio)-4-fluorobenzyl)piperazin-1-yl)ethan-1-one] | B (25 μM<EC99≤100 μM) | S (EC99≤12.5 μM) | S (EC99≤12.5 μM) | S (EC99≤12.5 μM) | S (EC99≤12.5 μM)
CCSc1cc(F)ccc1CN1CCN(C(=O)[C@H](N)C2CCN(CCc3cc(Cl)ccc3-c3ccccc3F)CC2)CC1 [Example 598, Hydrochloride of (R)-2-amino-2-(1-(2-(4-chloro-2′-fluoro-[1,1-biphenyl]-2-yl)ethyl)piperidin-4-yl)-1-(4-(2-(ethylthio)-4-fluorobenzyl)piperazin-1-yl) ethan-1-one] | S (EC99≤12.5 μM) | S (EC99≤12.5 μM) | S (EC99≤12.5 μM) | A (12.5 μM<EC99≤25 μM) | S (EC99≤12.5 μM)
CSc1ccccc1CN1CCN(C(=O)[C@H](N)C2CCN(CCc3cc(Cl)ccc3-c3cccc(N)c3)CC2)CC1 [Example 600, Hydrochloride of (R)-2-amino-2-(1-(2-(3′-amino-4-chloro-[1,1-biphenyl]-2-yl)ethyl)piperidin-4-yl)-1-(4-(2-(methylthio)benzyl)piperazin-1-yl)ethan-1-one] | S (EC99≤12.5 μM) | S (EC99≤12.5 μM) | S (EC99≤12.5 μM) | A (12.5 μM<EC99≤25 μM) | A (12.5 μM<EC99≤25 μM)
CSc1ccccc1CN1CCN(C(=O)[C@H](N)C2CCN(CCc3cc(Cl)ccc3-c3ccccc3F)CC2)CC1 [Example 601, Hydrochloride of (R)-2-amino-2-(1-(2-(4-chloro-2′-fluoro-[1,1-biphenyl]-2-yl)ethyl)piperidin-4-yl)-1-(4-(2-(methylthio)benzyl)piperazin-1-yl) ethan-1-one] | A (12.5 μM<EC99≤25 μM) | A (12.5 μM<EC99≤25 μM) | A (12.5 μM<EC99≤25 μM) | B (25 μM<EC99≤100 μM) | B (25 μM<EC99≤100 μM)
CSc1ccccc1CN1CCN(C(=O)[C@H](N)C2CCN(CCc3cc(Cl)ccc3C3=CCNCC3)CC2)CC1 [Example 602, Hydrochloride of (R)-2-amino-2-(1-(5-chloro-2-(1,2,3,6-tetrahydropyridin-4-yl)phenethyl)piperidin-4-yl)-1-(4-(2-(methylthio)benzyl)piperazin-1-yl) ethan-1-one] | B (25 μM<EC99≤100 μM) | S (EC99≤12.5 μM) | S (EC99≤12.5 μM) | S (EC99≤12.5 μM) | S (EC99≤12.5 μM)
CCSc1cc(F)ccc1CN1CCN(C(=O)[C@H](N)C2CCN(CCc3cc(Cl)ccc3-c3ccccc3N)CC2)CC1 [Example 604, Hydrochloride of (R)-2-amino-2-(1-(2-(2′-amino-4-chloro-[1,1-biphenyl]-2-yl)ethyl)piperidin-4-yl)-1-(4-(2-(ethylthio)-4-fluorobenzyl)piperazin-1-yl) ethan-1-one] | S (EC99≤12.5 μM) | S (EC99≤12.5 μM) | S (EC99≤12.5 μM) | A (12.5 μM<EC99≤25 μM) | A (12.5 μM<EC99≤25 μM)
CCSc1cc(F)ccc1CN1CCN(C(=O)[C@H](N)C2CCN(CCc3cc(Cl)ccc3C3=CCCNC3)CC2)CC1 [Example 605, Hydrochloride of (R)-2-amino-2-(1-(5-chloro-2-(1,2,5,6-tetrahydropyridin-3-yl)phenethyl)piperidin-4-yl)-1-(4-(2-(cthylthio)-4-fluorobenzyl)piperazin-1-yl) ethan-1-one] | B (25 μM<EC99≤100 μM) | S (EC99≤12.5 μM) | S (EC99≤12.5 μM) | S (EC99≤12.5 μM) | S (EC99≤12.5 μM)
CCSc1cc(F)ccc1CN1CCN(C(=O)[C@H](N)C2CCN(CCc3cc(Cl)ccc3-c3cc(N)cc(F)c3)CC2)CC1 [Example 606, Hydrochloride of (R)-2-amino-2-(1-(2-(3′-amino-4-chloro-5′-fluoro-[1,1-biphenyl]-2-yl)ethyl)piperidin-4-yl)-1-(4-(2-(ethylthio)-4-fluorobenzyl)piperazin-1-yl)ethan-1-one] | S (EC99≤12.5 μM) | S (EC99≤12.5 μM) | S (EC99≤12.5 μM) | B (25 μM<EC99≤100 μM) | B (25 μM<EC99≤100 μM)
CCSc1cc(F)ccc1CN1CCN(C(=O)[C@H](N)C2CCN(CCc3cc(Cl)ccc3-c3cccc(NC)c3)CC2)CC1 [Example 607, Hydrochloride of (R)-2-amino-2-(1-(2-(4-chloro-3′-(methylamino)-[1,1-biphenyl]-2-yl)ethyl)piperidin-4-yl)-1-(4-(2-(ethylthio)-4-fluorobenzyl)piperazin-1-yl)ethan-1-one] | S (EC99≤12.5 μM) | S (EC99≤12.5 μM) | S (EC99≤12.5 μM) | B (25 μM<EC99≤100 μM) | B (25 μM<EC99≤100 μM)
